Measurements from ChEMBL document CHEMBL1134057, “Synthesis of polyamine derivatives having non-hypotensive Ca2 +-permeable AMPA receptor antagonist activity” (Bioorg Med Chem Lett, 2001).

Columns and labels:
Rattus norvegicus = organism: Rattus norvegicus; conditions: dose 3 mg/kg; route intravenous
Description: Change in systolic blood pressure(SBP) after intravenous administration of 3 mg/kg in rats compared with SBP before dosing

[1] = target: Glutamate receptor ionotropic, AMPA (Rattus norvegicus, UniProt P19490+P19491+P19492+P19493)
[2] = target: Glutamate receptor ionotropic, AMPA (Rattus norvegicus) (UniProt P19491+P19492+P19493+P19490); assay: Antagonist activity for [Ca2+] permeable Ionotropic glutamate receptor AMPA expressed in Xenopus oocytes by injection of rat brain mRNA at 1 uM; format: functional, cell-based; conditions: Oocyte

Row | inhibition [2] | Structure (SMILES) | Delta SBP (Rattus norvegicus) | IC50 [1]
1 |  | O=C(Cc1cccc2ccccc12)N1CCC(CNCCCCNCC2CCNCC2)CC1 | -120 mmHg | 1300 nM
2 |  | O=C(Cc1cccc2ccccc12)N1CCC(CNCCCCNCC2CCN(c3ccncc3)CC2)CC1 | -43 mmHg | 170 nM
3 |  | NCCCNCCCCNCC1CCN(C(=O)Cc2cccc3ccccc23)CC1 | -35 mmHg | 320 nM
4 |  | O=C(Cc1cccc2ccccc12)N1CCC(CNCCCCNCCN2CCCCC2)CC1 | 5 mmHg | 190 nM
5 |  | NC(=O)C[C@@H](NC(=O)Cc1cccc2ccccc12)C(=O)N1CCC(CNCCCCNCC2CCNCC2)CC1 | -75 mmHg | 270 nM
6 |  | O=C(Cc1cccc2ccccc12)NCCCCCC(=O)N1CCC(CNCCCCNCC2CCNCC2)CC1 | -40 mmHg | 420 nM
7 |  | O=C(Cc1cccc2ccccc12)NCC(=O)N1CCC(CNCCCCNCC2CCNCC2)CC1 | -50 mmHg | 490 nM
8 |  | O=C(Cc1cccc2ccccc12)N1CCC(CNCCCCNCC2CCCNC2)CC1 (stereo not given) | -58 mmHg | 820 nM
9 |  | O=C(Cc1cccc2ccccc12)N1CCC(CNCCCCNCCCn2ccnc2)CC1 | -25 mmHg | 260 nM
10 | 18% | O=C(Cc1cccc2ccccc12)N1CCC(CNCCCCNCCN2CCOCC2)CC1 | 0 mmHg | 
11 |  | NCCNCCCCNCC1CCN(C(=O)Cc2cccc3ccccc23)CC1 | -50 mmHg | 330 nM
12 |  | O=C(Cc1cccc2ccccc12)N1CCC(CNCCCCNCC2CCCN2)CC1 (stereo not given) | 0 mmHg | 730 nM
13 |  | CN1CCC(CNCCCCNCC2CCN(C(=O)Cc3cccc4ccccc34)CC2)CC1 | -50 mmHg | 570 nM
14 | 41% | CN1CCCC1CNCCCCNCC1CCN(C(=O)Cc2cccc3ccccc23)CC1 (stereo not given) | 13 mmHg | 
15 |  | O=C(Cc1cccc2ccccc12)N1CCC(CNCCCCNCC2CCCCN2)CC1 (stereo not given) | 0 mmHg | 1100 nM
16 | 27% | CN1CCCCC1CNCCCCNCC1CCN(C(=O)Cc2cccc3ccccc23)CC1 (stereo not given) | 11 mmHg | 
17 | 28% | c1ccc2c(CCN3CCC(CNCCCCNCC4CCNCC4)CC3)cccc2c1 |  | 
18 |  | CN1CCCC1CCNCCCCNCC1CCN(C(=O)Cc2cccc3ccccc23)CC1 (stereo not given) | -55 mmHg | 780 nM
